Results from patent publication US20240376143A1, “SELECTION INHIBITION OF DNA POLYMERASE BETA BY A COVALENT INHIBITOR” (The Johns Hopkins University, priority 2021, published 2024).

What was measured:
[1] = target: DNA polymerase β (Pol β) (Homo sapiens, UniProt P06746); conditions: 30 min preincubation; Paul et al.; cited from earlier work
[2] = target: T1, Pol η (Homo sapiens, UniProt Q9Y253); experiment: primer extension assay (Pol η); type: biochemical; conditions: 10 μM
T1 construct: purchased EnzyMax
T1 sequence (Q9Y253 1-713): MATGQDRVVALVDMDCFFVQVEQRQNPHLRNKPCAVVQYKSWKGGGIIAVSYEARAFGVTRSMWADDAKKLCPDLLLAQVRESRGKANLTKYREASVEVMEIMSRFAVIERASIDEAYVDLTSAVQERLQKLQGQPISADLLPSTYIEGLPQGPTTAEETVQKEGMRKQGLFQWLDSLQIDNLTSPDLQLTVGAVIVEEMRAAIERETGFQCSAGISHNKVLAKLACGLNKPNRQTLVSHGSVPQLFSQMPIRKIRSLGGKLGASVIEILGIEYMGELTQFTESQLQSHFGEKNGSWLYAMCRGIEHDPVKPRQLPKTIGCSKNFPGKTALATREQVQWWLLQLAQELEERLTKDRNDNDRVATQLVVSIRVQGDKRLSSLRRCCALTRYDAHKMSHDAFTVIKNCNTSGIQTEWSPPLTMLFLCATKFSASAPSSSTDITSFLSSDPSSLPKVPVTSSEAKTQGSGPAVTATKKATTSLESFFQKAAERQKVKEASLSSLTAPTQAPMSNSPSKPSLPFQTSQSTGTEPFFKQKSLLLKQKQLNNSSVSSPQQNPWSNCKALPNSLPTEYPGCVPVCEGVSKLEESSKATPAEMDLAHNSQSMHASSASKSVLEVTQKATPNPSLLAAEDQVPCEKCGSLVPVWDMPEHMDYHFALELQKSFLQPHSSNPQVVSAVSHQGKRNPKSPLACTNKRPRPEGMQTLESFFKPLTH
Procedure: (§1) A 10× working solution of 14 (5 or 100 μM) was prepared in 1:1 MeCN/H2O. A 10× preincubation mixture was prepared by mixing a 50× working solution of polymerase (250 nM) with an aliquot of the inhibitor (5 or 100 μM, 10×) in 1× reaction buffer (50 mM Tris·HCl, 50 mM NaCl, 5 mM MgCl2, 5 mM DTT, 0.1 mg/mL BSA, 10% glycerol, pH 7.5) (see Table 19 for volumes). The concentration of the preincubation mixture was 50 nM polymerase (10×) and 0, 0.5 or 10 μM 14 (1×).
(§2) The samples containing 50 nM polymerase and 14 (0, 0.5, or 10 μM) were preincubated at 25° C. for 20 min. After preincubation, an aliquot (2 μL, pol η or 3 μL, pol λ) was diluted with 10× ternary complex (pol η: 2 μL, 500 nM D4 or pol λ: 3 μL, 100 nM TC5), 10× dNTPs (5 mM; 2 μL, pol η or 3 μL, pol λ), and 1× reaction buffer (14 μL., pol η or 21 μL, pol λ) (see Table 20 for volumes). While the samples were incubated at 37° C., aliquots (pol η: 0, 2, 5, 10, 15, 20 min, 3 μL or pol λ: 0, 5, 15, 20, 30 min, 5 μL) were removed and quenched by the addition of 95% formamide, 20 mM EDTA loading buffer (10 μL). Aliquots were heated at 95° C. for 5 min, spun down, and loaded onto a 20% denaturing PAGE and run for 4 h at 55 watts. The gel was exposed in a radiography cassette, which was scanned using a Phosphorimager.

[3] = target: T2, Pol λ (Homo sapiens, UniProt Q9UGP5); experiment: primer extension assay (Pol λ); type: biochemical; conditions: 10 μM
T2 sequence (Q9UGP5 1-575): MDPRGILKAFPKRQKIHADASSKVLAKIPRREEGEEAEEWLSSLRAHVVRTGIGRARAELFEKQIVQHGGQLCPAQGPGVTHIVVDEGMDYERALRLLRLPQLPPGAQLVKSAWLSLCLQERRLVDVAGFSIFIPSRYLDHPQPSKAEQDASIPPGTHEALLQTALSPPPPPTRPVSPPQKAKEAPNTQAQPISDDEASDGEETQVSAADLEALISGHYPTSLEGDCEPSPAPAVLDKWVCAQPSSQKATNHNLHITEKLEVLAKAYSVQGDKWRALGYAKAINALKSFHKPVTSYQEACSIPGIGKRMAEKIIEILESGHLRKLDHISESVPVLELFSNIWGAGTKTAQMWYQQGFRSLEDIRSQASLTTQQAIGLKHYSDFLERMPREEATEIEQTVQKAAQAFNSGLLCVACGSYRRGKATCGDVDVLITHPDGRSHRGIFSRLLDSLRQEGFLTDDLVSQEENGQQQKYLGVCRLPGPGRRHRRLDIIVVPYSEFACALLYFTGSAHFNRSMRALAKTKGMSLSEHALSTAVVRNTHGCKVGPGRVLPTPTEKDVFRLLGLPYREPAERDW
Procedure: as §1, §2

[4] = test system: MEFs lacking Pol β (Pol β−/−); experiment: cell viability assay for MEFs lacking Pol β; type: cell-based, mouse; conditions: MMS alone
Procedure: Mouse embryonic fibroblasts (Pol β1 WT, Pol β−/−, Pol λ WT, Pol λ−/−, Pol β−/λ−) were seeded at a density of ˜0.3×10^6 cells/well in 6-well dishes. […] Control wells were treated with an equal volume of vector (50% MeCN in H2O). Cells were washed with 1×PBS and fresh medium was added. Dishes were incubated for 5 days at 34° C. in a 10% CO2 incubator until untreated control cells were approximately 80% confluent. Cells (triplicate wells for each treatment concentration were counted by a cell lysis procedure (described previously), and the results were expressed as the surviving fraction of cells in drug-treated wells relative to control wells.

[5] = test system: MDA-MB-436; experiment: clonogenic assay, BRCA1 deficient breast cancer cells; type: cell-based; conditions: 1 h
Procedure: (§3) The medium was removed, and the cells were resuspended in fresh media (10 mL). […] The excess dye was removed by washing with water twice.

[6] = test system: UWB1.289+BRCA1; experiment: clonogenic assay, BRCA1 complemented ovarian cancer cells; type: cell-based
[7] = test system: UWB1.289 (BRCA1−/−); experiment: clonogenic assay, BRCA1 deficient ovarian cancer cells; type: cell-based; conditions: 1 μM
Procedure: as §3
UWB1.289 cells (6×106) were seeded with RPMI 1640/MEGM medium (10 mL) into a 100 mm plate prior to transfection so cells would be adherent and ˜80% confluent on the first day of transfection, which was determined by manual inspection. Transfection was completed as follows: • 1. Lipofectamine RNAiMAX (60 μL) was diluted in Opti-MEM reduced serum medium to 1 mL. • 2. In a separate tube, siRNA (either siNT or siPol β, 10 μM, 60 μL, […]) was diluted in Opti-MEM (500 μL). • 3. The Lipofectamine solution was split (2×500 μL aliquots) and mixed with either siNT or siPol β solution to form the lipid-RNA complex at 25° C. for 5 min. • 4. The RPMI 1640/MEGM medium was removed and replaced with Opti-MEM medium (9 mL). After 5 min incubation, the lipid-RNA solution (1 mL) was added to the cells. Cells were incubated at 37° C. in a 5% CO2 humidified incubator. The following day, steps 1-3 were repeated. and the resulting 2×500 μL solutions were added to the existing cells that had been incubating at 37° C., 5% CO2 for 24 h. Transfected cells were allowed to incubate for an additional 48 h at 37° C., 5% CO2 after the second addition of siRNA. […]

[8] = test system: MCF-7; experiment: clonogenic assay, BRCA1 proficient breast cancer cells; type: cell-based; conditions: 1 h
Procedure: as §3

SMILES: COc1cc(Cl)c(C=NOC2CC(n3cc(CNC(=O)c4cc5cccc(O)c5cc4O)c(=O)[nH]c3=O)OC2COP(=O)(O)OCC2CC(O)OC2O)c(Cl)c1O (stereo not drawn) [Compound 2]
- IC50 [1]: 400 nM

SMILES: O=C(NC1CC(n2cc(CNC(=O)c3cc4cc(Br)ccc4c(Br)c3O)c(=O)[nH]c2=O)OC1COP(=O)(O)OCC1CC(O)OC1O)c1cc(-c2ccc(Cl)cc2)oc1C(F)(F)F (stereo not drawn) [Compound 14]
- Pol η activity retained [2]: approximately 50%
- Pol λ activity relative to untreated enzyme [3]: more than 25%

SMILES: COS(C)(=O)=O [MMS, methyl methanesulfonate]
- toxicity compared with WT MEFs [4]: considerably more toxic

SMILES: O=C(c1cc(Cc2n[nH]c(=O)c3ccccc23)ccc1F)N1CCN(C(=O)C2CC2)CC1 [Olaparib]
- cell killing compared with pro-1 [5]: more effective at killing BRCA1−/− cells at a lower concentration
- toxicity ([6]; 1 h treatment): modestly toxic
- cytotoxicity upon prolonged treatment, compared with pro-1 ([6]; time course): more cytotoxic
- cytotoxicity as a function of treatment time [7]: proportional to incubation time
- toxicity compared with pro-1 [8]: more toxic
